Results: paper PMC7525318, “Identification of Six Flavonoids as Novel Cellular Antioxidants and Their Structure-Activity Relationship” (Oxidative Medicine and Cellular Longevity, 2020)
Read-outs that look alike come from different tables or passages of the source.

Legend:
HepG2 cells [1] = test: Cellular antioxidant activity (CAA) assay; format: cell-based; conditions: DCFH-DA 25 μM, ABAP 600 μM
Procedure: The CAA assay was tested as described previously. 6 × 10^4 cells/well of HepG2 cells were seeded at a 96-well microplate with 100 μL of growth medium/well. […] Then, the cells were washed with PBS and treated with 100 μL of 600 μM ABAP (dissolved in HBSS), and the 96-well microplate was immediately placed into an Infinite SpectraMax i3x Multi-Mode Detection plate-reader at 37°C. […]

[2] = Oxygen radical antioxidant capacity (ORAC) assay; conditions: Trolox equivalents; AAPH, fluorescein
Procedure: The ORAC assay was evaluated as previously described by Cao et al. with some modifications. 50 μL of samples or Trolox with different concentrations and the fluorescein solution was added to a 96-well microplate, which was incubated at 37°C for 10 min. […] The ORAC values were calculated by the regression equation between the Trolox concentration and the net area under the curve (expressed as μmol Trolox eq/μmol sample).

HepG2 cells [3] = test: Antiproliferative activity assay (CCK-8); format: cell-based
Procedure: (§1) The cytotoxicity and antiproliferative activity assays were performed by using the CCK-8 assay kit. Briefly, HepG2 cells were cultured at a density of 4 × 10^4 cells/well or 2.5 × 10^4 cells/well in a 96-well microplate with growth medium. After incubation at 37°C, the growth medium is treated with 100 μL of growth medium containing different concentrations of tested compounds for 24 h or 72 h. The wells having growth medium without the tested compound served as control. Then, the cells were incubated with 10 μL/well CCK-8 solutions for 2 h at 37°C. The absorbance values of each well were measured at 450 nm using a microplate reader (SpectraMax i3x, ForteBio Analytics Co., Ltd., USA). The cytotoxic activity and antiproliferative effects of the tested compound was calculated as(1) Cytotoxicity %=1−As/Ac×100%, (2) Cell proliferation %=As/Ac×100%, where As is the absorbance of the well with compound; Ac is the absorbance of control.

catalase (CAT) = test: Intracellular CAT activity in ABAP-treated HepG2 cells; format: cell-based; conditions: for CAT activity of PC value: % of PC value; for increase of CAT activity: HepG2, pretreatment before ABAP
Procedure: (§2) HepG2 cells were seeded (1 × 10^6 cells/well) in six-well plates. After incubation for 24 h, the cells were pretreated with different concentration samples. Medium was washed by PBS and treated with 600 μM ABAP. The cells were collected and treated with cell lysis buffer (20 mM Tris at pH 7.5, 150 mM NaCl and 1% Triton X-100) at 4°C. The lysed cells were used to measure the intracellular activities of SOD, CAT, and GSH-Px by kits according to the manufacturer instructions (Wen 2015). Cells without sample and ABAP treatment were used as positive control (PC), while cells treated with ABAP but not sample were used as negative control (NC).

[4] = test system: glutathione peroxidase (GSH-Px); test: Intracellular GSH-Px activity in ABAP-treated HepG2 cells; format: cell-based; conditions: for GSH-Px activity of PC value: % of PC value; for increase of GSH-Px activity: HepG2, pretreatment before ABAP
Procedure: as §2

HepG2 cells [5] = test: Cytotoxicity assay (CCK-8); format: cell-based
Procedure: as §1

[6] = DPPH radical scavenging activity; conditions: 0.1 mM DPPH in methanol, 37°C, 30 min
Procedure: This assay was conducted as previously described by Wen et al. with some modifications. DPPH was freshly prepared in methanol at a concentration of 0.1 mM. The solution (20 μL) containing the tested compounds with different concentrations was added into the DPPH solution (180 μL) in the 96-well plates. […] The IC50 value was calculated on the scavenging activity against DPPH radical.

[7] = test system: superoxide dismutase (SOD); test: Intracellular SOD activity in ABAP-treated HepG2 cells; format: cell-based; conditions: then ABAP
Procedure: as §2

[8] = HepG2, pretreated with 15 μM, then ABAP
[9] = HepG2, pretreated with 30 μM, then ABAP
[10] = HepG2, pretreated with 45 μM, then ABAP
[11] = HepG2, pretreated at a higher concentration
[12] = HepG2, first of three concentrations (not given)
[13] = HepG2, second of three concentrations (not given)
[14] = HepG2, third of three concentrations (not given)
[15] = HepG2, pretreated with 10 μM, then ABAP
[16] = HepG2, pretreated with 20 μM, then ABAP
[17] = HepG2, pretreated with 5 μM, then ABAP

EC50 (HepG2 cells [1]; Homo sapiens) [µM]	IC50 [6] [µM]	Compound	ORAC values [2] [μmol TE/μmol]	increase of CAT activity (catalase (CAT))	increase of GSH-Px activity [4]	cytotoxicity (HepG2 cells [5]; range of 10-160 μM)	SOD activity compared to NC cells [7, 11]	further results
45.1 ± 2.12	71.7	O=c1c(O[C@@H]2O[C@@H](CO)[C@H](O)[C@H]2O)c(-c2ccc(O)c(O)c2)oc2cc(O)cc(O)c12 [compound 10, Avicularin]		dose-dependent manner	dose-dependent manner	no significant effects	significant increase	CAT activity of PC value (catalase (CAT); [15]): 51.90 ± 3.21%; CAT activity of PC value (catalase (CAT); [16]): 68.95 ± 4.22%; CAT activity of PC value (catalase (CAT); [9]): 81.82 ± 4.25%; GSH-Px activity of PC value [4, 15]: 54.37 ± 3.05%; GSH-Px activity of PC value [4, 16]: 68.21 ± 4.25%; GSH-Px activity of PC value [4, 9]: 81.82 ± 5.52%; SOD activity compared to NC cells ([7]; HepG2, pretreated with 10 μM): insignificant increase
139 ± 5.21	> 200	O=c1cc(-c2ccc(O)c(O)c2)oc2cc(O)c([C@@H]3O[C@H](CO)[C@@H](O)[C@H](O)[C@H]3O)c(O)c12 [compound 32, Isoorientin]		dose-dependent manner	dose-dependent manner	no significant effects	significant increase	CAT activity of PC value (catalase (CAT); [12]): 44.93 ± 2.23%; CAT activity of PC value (catalase (CAT); [13]): 52.68 ± 3.42%; CAT activity of PC value (catalase (CAT); [14]): 68.35 ± 3.72%; GSH-Px activity of PC value [4, 12]: 47.79 ± 3.28%; GSH-Px activity of PC value [4, 13]: 55.99 ± 3.57%; GSH-Px activity of PC value [4, 14]: 71.20 ± 4.28%; SOD activity compared to NC cells ([7]; HepG2, pretreated with 40 μM): insignificant increase
> 200	> 200	COc1cc(-c2[o+]c3cc(O)cc(OC4OC(CO)C(O)C(O)C4O)c3cc2OC2OC(CO)C(O)C(O)C2O)cc(OC)c1O (stereo not shown) [compound 57, Malvin]	4.32 ± 0.19					
> 200	96.03 ± 0.13	Oc1cc(O)c2c(c1)O[C@H](c1ccc(O)c(O)c1)[C@H](O)C2 [compound 58, Epicatechin]	4.83 ± 0.13					
> 200	130 ± 5.55	Oc1cc(O)c2c(c1)OC(c1ccc(O)c(O)c1)C(O)C2 (stereo not shown) [compound 59, Catechin]	4.93 ± 0.02					
25.91 ± 0.25	19.1 ± 0.62	O=C(O[C@@H]1Cc2c(O)cc(O)cc2O[C@@H]1c1cc(O)c(O)c(O)c1)c1cc(O)c(O)c(O)c1 [compound 60, Epigallocatechin gallate]	6.02 ± 0.14					

Second part, the compound before the results:

Compound	EC50 (HepG2 cells [1]; Homo sapiens) [µM]	IC50 [6] [µM]	ORAC values [2] [μmol TE/μmol]	increase of CAT activity (catalase (CAT))	increase of GSH-Px activity [4]	cytotoxicity (HepG2 cells [5]; range of 10-160 μM)	SOD activity compared to NC cells [7, 11]	further results
COc1c(-c2ccc(O)c(O)c2)oc2cc(O)cc(O)c2c1=O [compound 5, 3-O-methylquercetin]	19.5 ± 1.48	> 200	4.71 ± 0.12	dose-dependent manner	dose-dependent manner	no significant effects	significant increase	cytotoxicity revealed by the cell proliferative assay (HepG2 cells [3]): slightly cytotoxicity; IC50 (HepG2 cells [3]; Homo sapiens): 90.7 ± 2.45 µM; cytotoxicity revealed by the cell proliferative assay (HepG2 cells [3]; listed as 3-O-methylquercetin): low cytotoxicity; CAT activity of PC value (catalase (CAT); [8]): 49.55 ± 3.21%; CAT activity of PC value (catalase (CAT); [9]): 69.34 ± 5.15%; CAT activity of PC value (catalase (CAT); [10]): 80.67 ± 7.13%; GSH-Px activity of PC value [4, 8]: 59.74 ± 3.23%; GSH-Px activity of PC value [4, 9]: 69.08 ± 4.27%; GSH-Px activity of PC value [4, 10]: 83.44 ± 4.18%; SOD activity compared to NC cells ([7]; HepG2, pretreated with 15 μM): insignificant increase
O=c1c(O)c(-c2ccc(O)cc2)oc2c(O)c(O)cc(O)c12 [compound 8, Herbacetin]	27.1 ± 2.47	> 200	5.05 ± 0.05	dose-dependent manner	dose-dependent manner	no significant effects	significant increase	CAT activity of PC value (catalase (CAT); [12]): 50.86 ± 2.23%; CAT activity of PC value (catalase (CAT); [13]): 67.01 ± 5.32%; CAT activity of PC value (catalase (CAT); [14]): 80.86 ± 5.21%; GSH-Px activity of PC value [4, 12]: 54.02 ± 3.02%; GSH-Px activity of PC value [4, 13]: 63.46 ± 2.51%; GSH-Px activity of PC value [4, 14]: 82.02 ± 5.35%; SOD activity compared to NC cells ([7]; HepG2, pretreated with 15 μM): insignificant increase
O=c1c(O)c(-c2ccc(O)cc2)oc2cc(OC3O[C@H](CO)[C@@H](O)[C@H](O)[C@H]3O)cc(O)c12 (stereo partly shown) [compound 13, Kaempferol-7-O-glucopyranoside]	57.8 ± 3.12	> 200		dose-dependent manner	dose-dependent manner	no significant effects	significant increase	cytotoxicity (HepG2 cells [5]; at higher concentration): slight cytotoxicity; SOD activity compared to NC cells ([7]; HepG2, pretreated with 20 μM): insignificant increase
COc1cc(-c2[o+]c3cc(O)cc(O)c3cc2O[C@@H]2O[C@H](CO)[C@@H](O)[C@H](O)[C@H]2O)cc(OC)c1O.[Cl-] [compound 56, Oenin chloride]		> 200	4.78 ± 0.15					EC50 (HepG2 cells [1]): > 200 µM
Rhamnetin [compound 2]		34 ± 0.61	4.72 ± 0.02	dose-dependent manner	dose-dependent manner	no significant effects	significant increase	EC50 (HepG2 cells [1]): 10.8 ± 0.34 µM; CAT activity of PC value (catalase (CAT); [17]): 56.58 ± 3.25%; CAT activity of PC value (catalase (CAT); [15]): 74.98 ± 4.25%; CAT activity of PC value (catalase (CAT); [8]): 83.10 ± 4.54%; GSH-Px activity of PC value [4, 17]: 65.09 ± 3.21%; GSH-Px activity of PC value [4, 15]: 71.88 ± 4.23%; GSH-Px activity of PC value [4, 8]: 81.24 ± 5.65%; SOD activity compared to NC cells ([7]; HepG2, pretreated with 5 μM): insignificant increase
